Converted amounts (≈) assume the structure as drawn.
Key:
Format in all cases: functional
Haemophilus influenzae = assay: Antimicrobial activity against Haemophilus influenzae by broth microdilution method
Staphylococcus aureus [1] = assay: Antimicrobial activity against methicillin-susceptible Staphylococcus aureus by broth microdilution method
Staphylococcus aureus [2] = assay: Antimicrobial activity against methicillin-resistant Staphylococcus aureus by broth microdilution method
[3] = tested on: Staphylococcus epidermidis; assay: Antimicrobial activity against methicillin-susceptible Staphylococcus epidermidis by broth microdilution method
[4] = tested on: Staphylococcus epidermidis; assay: Antimicrobial activity against methicillin-resistant Staphylococcus epidermidis by broth microdilution method
Enterococcus faecalis [5] = assay: Antimicrobial activity against vancomycin-susceptible Enterococcus faecalis by broth microdilution method
Enterococcus faecalis [6] = assay: Antimicrobial activity against vancomycin-resistant Enterococcus faecalis by broth microdilution method
Enterococcus faecium [7] = assay: Antimicrobial activity against vancomycin-susceptible Enterococcus faecium by broth microdilution method
Enterococcus faecium [8] = assay: Antimicrobial activity against vancomycin-resistant Enterococcus faecium by broth microdilution method
Streptococcus pneumoniae [9] = assay: Antimicrobial activity against penicillin-susceptible Streptococcus pneumoniae by broth microdilution method
Streptococcus pneumoniae [10] = assay: Antimicrobial activity against penicillin-intermediate Streptococcus pneumoniae by broth microdilution method
Streptococcus pneumoniae [11] = assay: Antimicrobial activity against penicillin-resistant Streptococcus pneumoniae by broth microdilution method
Streptococcus agalactiae = assay: Antimicrobial activity against Streptococcus agalactiae by broth microdilution method
Clostridioides difficile = assay: Antimicrobial activity against Clostridium difficile by broth microdilution method
Escherichia coli = assay: Antimicrobial activity against Escherichia coli by broth microdilution method
Klebsiella pneumoniae [12] = assay: Antimicrobial activity against Klebsiella pneumoniae by broth microdilution method
Klebsiella pneumoniae [13] = assay: Antimicrobial activity against ESBL-production Klebsiella pneumoniae by broth microdilution method
Serratia marcescens = assay: Antimicrobial activity against Serratia marcescens by broth microdilution method
Proteus mirabilis = assay: Antimicrobial activity against Proteus mirabilis by broth microdilution method
Acinetobacter baumannii [14] = assay: Antimicrobial activity against Acinetobacter baumannii by broth microdilution method
Acinetobacter baumannii [15] = assay: Antimicrobial activity against multiple dug-resistant Acinetobacter baumannii by broth microdilution method
Pseudomonas aeruginosa = assay: Antimicrobial activity against Pseudomonas aeruginosa by broth microdilution method
Burkholderia cepacia = assay: Antimicrobial activity against Burkholderia cepacia by broth microdilution method

In the case of `C[C@H]1COc2c(N3CCN(C)CC3)c(F)cc3c(=O)c(C(=O)O)cn1c23.C[C@H]1COc2c(N3CCN(C)CC3)c(F)cc3c(=O)c(C(=O)O)cn1c23.O` [LEVOFLOXACIN], the MIC (Haemophilus influenzae) is reported as 0.08 µg/mL, the MIC50 (Haemophilus influenzae) is reported as 0.015 µg/mL and the MIC90 (Haemophilus influenzae) is reported as 0.06 µg/mL.
For `CC(=O)NC[C@H]1CN(c2ccc(N3CCOCC3)c(F)c2)C(=O)O1` [LINEZOLID], the MIC50 (Staphylococcus aureus [1]) was 2 µg/mL (≈ 5.93 µM), the MIC90 (Staphylococcus aureus [1]) was 4 µg/mL (≈ 11.9 µM) and the MIC50 (Staphylococcus aureus [2]) was 2 µg/mL (≈ 5.93 µM). The MIC90 (Staphylococcus aureus [2]) was 4 µg/mL (≈ 11.9 µM), the MIC50 [3] was 1 µg/mL (≈ 2.96 µM) and the MIC90 [3] was 2 µg/mL (≈ 5.93 µM). It also gave an MIC [4] of 1 µg/mL (≈ 2.96 µM), an MIC50 [4] of 1 µg/mL (≈ 2.96 µM) and an MIC90 [4] of 2 µg/mL (≈ 5.93 µM). For the same compound, the MIC50 (Enterococcus faecalis [5]) was 2 µg/mL (≈ 5.93 µM), the MIC90 (Enterococcus faecalis [5]) was 2 µg/mL (≈ 5.93 µM) and the MIC50 (Enterococcus faecalis [6]) was 1 µg/mL (≈ 2.96 µM). It also gave an MIC90 (Enterococcus faecalis [6]) of 1 µg/mL (≈ 2.96 µM), an MIC (Enterococcus faecium [7]) of 2 µg/mL (≈ 5.93 µM) and an MIC50 (Enterococcus faecium [7]) of 2 µg/mL (≈ 5.93 µM). For the same compound, the MIC90 (Enterococcus faecium [7]) was 4 µg/mL (≈ 11.9 µM), the MIC50 (Enterococcus faecium [8]) was 2 µg/mL (≈ 5.93 µM) and the MIC90 (Enterococcus faecium [8]) was 2 µg/mL (≈ 5.93 µM). The MIC50 (Streptococcus pneumoniae [9]) was 1 µg/mL (≈ 2.96 µM), the MIC90 (Streptococcus pneumoniae [9]) was 2 µg/mL (≈ 5.93 µM) and the MIC50 (Streptococcus pneumoniae [10]) was 1 µg/mL (≈ 2.96 µM). For the same compound, the MIC90 (Streptococcus pneumoniae [10]) was 1 µg/mL (≈ 2.96 µM), the MIC50 (Streptococcus pneumoniae [11]) was 1 µg/mL (≈ 2.96 µM) and the MIC90 (Streptococcus pneumoniae [11]) was 1 µg/mL (≈ 2.96 µM). For the same compound, the MIC (Streptococcus agalactiae) was 1 µg/mL (≈ 2.96 µM), the MIC50 (Streptococcus agalactiae) was 1 µg/mL (≈ 2.96 µM) and the MIC90 (Streptococcus agalactiae) was 2 µg/mL (≈ 5.93 µM).
For `Cc1ncc([N+](=O)[O-])n1CCO` [METRONIDAZOLE], the MIC50 (Clostridioides difficile) was 0.12 µg/mL (≈ 0.701 µM) and the MIC90 (Clostridioides difficile) was 0.5 µg/mL (≈ 2.92 µM).
In the case of `CN(C)c1cc(NC(=O)CNC(C)(C)C)c(O)c2c1C[C@H]1C[C@H]3[C@H](N(C)C)C(O)=C(C(N)=O)C(=O)[C@@]3(O)C(O)=C1C2=O` [TIGECYCLINE], the MIC (Escherichia coli) is reported as 0.12 µg/mL (≈ 0.205 µM), the MIC50 (Escherichia coli) is reported as 0.12 µg/mL (≈ 0.205 µM) and the MIC90 (Escherichia coli) is reported as 0.25 µg/mL (≈ 0.427 µM). For the same compound, the MIC50 (Klebsiella pneumoniae [12]) was 1 µg/mL (≈ 1.71 µM), the MIC90 (Klebsiella pneumoniae [12]) was > 8 µg/mL and the MIC50 (Klebsiella pneumoniae [13]) was 0.03 µg/mL (≈ 0.0512 µM). The MIC90 (Klebsiella pneumoniae [13]) was > 2 µg/mL, the MIC50 (Serratia marcescens) was 0.5 µg/mL (≈ 0.854 µM) and the MIC90 (Serratia marcescens) was 2 µg/mL (≈ 3.41 µM). The MIC50 (Proteus mirabilis) was 0.5 µg/mL (≈ 0.854 µM), the MIC90 (Proteus mirabilis) was > 32 µg/mL and the MIC50 (Acinetobacter baumannii [14]) was 0.25 µg/mL (≈ 0.427 µM). For the same compound, the MIC90 (Acinetobacter baumannii [14]) was > 8 µg/mL, the MIC50 (Acinetobacter baumannii [15]) was 0.5 µg/mL (≈ 0.854 µM) and the MIC90 (Acinetobacter baumannii [15]) was 2 µg/mL (≈ 3.41 µM). For the same compound, the MIC50 (Pseudomonas aeruginosa) was 0.5 µg/mL (≈ 0.854 µM), the MIC90 (Pseudomonas aeruginosa) was > 32 µg/mL and the MIC50 (Burkholderia cepacia) was > 8 µg/mL. The MIC90 (Burkholderia cepacia) was > 8 µg/mL.
For `CN[C@H](CC(C)C)C(=O)N[C@H]1C(=O)N[C@@H](CC(N)=O)C(=O)N[C@H]2C(=O)N[C@H]3C(=O)N[C@H](C(=O)N[C@H](C(=O)O)c4cc(O)cc(O)c4-c4cc3ccc4O)[C@H](O)c3ccc(c(Cl)c3)Oc3cc2cc(c3O[C@@H]2O[C@H](CO)[C@@H](O)[C@H](O)[C@H]2O[C@H]2C[C@](C)(N)[C@H](O)[C@H](C)O2)Oc2ccc(cc2Cl)[C@H]1O` [VANCOMYCIN], the MIC50 (Staphylococcus aureus [1]) was 0.5 µg/mL (≈ 0.345 µM), the MIC90 (Staphylococcus aureus [1]) was 1 µg/mL (≈ 0.69 µM) and the MIC50 (Staphylococcus aureus [2]) was 0.5 µg/mL (≈ 0.345 µM). It also gave an MIC90 (Staphylococcus aureus [2]) of 1 µg/mL (≈ 0.69 µM), an MIC90 [3] of 2 µg/mL (≈ 1.38 µM) and an MIC50 [4] of 2 µg/mL (≈ 1.38 µM). It also gave an MIC90 [4] of 2 µg/mL (≈ 1.38 µM), an MIC50 (Enterococcus faecalis [5]) of 1 µg/mL (≈ 0.69 µM) and an MIC90 (Enterococcus faecalis [5]) of 2 µg/mL (≈ 1.38 µM). For the same compound, the MIC (Enterococcus faecalis [6]) was > 64 µg/mL, the MIC50 (Enterococcus faecalis [6]) was > 64 µg/mL and the MIC90 (Enterococcus faecalis [6]) was > 64 µg/mL. For the same compound, the MIC50 (Enterococcus faecium [7]) was 0.5 µg/mL (≈ 0.345 µM), the MIC90 (Enterococcus faecium [7]) was 1 µg/mL (≈ 0.69 µM) and the MIC50 (Enterococcus faecium [8]) was > 64 µg/mL. The MIC90 (Enterococcus faecium [8]) was > 64 µg/mL, the MIC50 (Streptococcus pneumoniae [9]) was 0.25 µg/mL (≈ 0.173 µM) and the MIC90 (Streptococcus pneumoniae [9]) was 0.25 µg/mL (≈ 0.173 µM). For the same compound, the MIC (Streptococcus pneumoniae [10]) was 0.25 µg/mL (≈ 0.173 µM), the MIC50 (Streptococcus pneumoniae [10]) was 0.25 µg/mL (≈ 0.173 µM) and the MIC90 (Streptococcus pneumoniae [10]) was 0.25 µg/mL (≈ 0.173 µM). The MIC (Streptococcus pneumoniae [11]) was 0.25 µg/mL (≈ 0.173 µM), the MIC50 (Streptococcus pneumoniae [11]) was 0.25 µg/mL (≈ 0.173 µM) and the MIC90 (Streptococcus pneumoniae [11]) was 0.25 µg/mL (≈ 0.173 µM). It also gave an MIC50 (Streptococcus agalactiae) of 1 µg/mL (≈ 0.69 µM) and an MIC90 (Streptococcus agalactiae) of 1 µg/mL (≈ 0.69 µM).
GENTAMICIN was tested, and the MIC50 (Escherichia coli) was 1 µg/mL, the MIC90 (Escherichia coli) was 1 µg/mL and the MIC50 (Klebsiella pneumoniae [12]) was 0.5 µg/mL. For the same compound, the MIC90 (Klebsiella pneumoniae [12]) was 2 µg/mL, the MIC50 (Klebsiella pneumoniae [13]) was 0.25 µg/mL and the MIC90 (Klebsiella pneumoniae [13]) was 1 µg/mL. It also gave an MIC50 (Serratia marcescens) of 4 µg/mL, an MIC90 (Serratia marcescens) of 4 µg/mL and an MIC50 (Proteus mirabilis) of 1 µg/mL. The MIC90 (Proteus mirabilis) was 8 µg/mL, the MIC50 (Acinetobacter baumannii [14]) was 0.06 µg/mL and the MIC90 (Acinetobacter baumannii [14]) was > 8 µg/mL. For the same compound, the MIC50 (Acinetobacter baumannii [15]) was 0.5 µg/mL, the MIC90 (Acinetobacter baumannii [15]) was 4 µg/mL and the MIC50 (Pseudomonas aeruginosa) was 2 µg/mL. The MIC90 (Pseudomonas aeruginosa) was > 32 µg/mL, the MIC50 (Burkholderia cepacia) was 0.5 µg/mL and the MIC90 (Burkholderia cepacia) was > 8 µg/mL.
